Molecular target: Bmt5 (Saccharomyces cerevisiae, UniProt P40493)
Assay: biochemical

Sequence of Bmt5 (P40493 whole entry): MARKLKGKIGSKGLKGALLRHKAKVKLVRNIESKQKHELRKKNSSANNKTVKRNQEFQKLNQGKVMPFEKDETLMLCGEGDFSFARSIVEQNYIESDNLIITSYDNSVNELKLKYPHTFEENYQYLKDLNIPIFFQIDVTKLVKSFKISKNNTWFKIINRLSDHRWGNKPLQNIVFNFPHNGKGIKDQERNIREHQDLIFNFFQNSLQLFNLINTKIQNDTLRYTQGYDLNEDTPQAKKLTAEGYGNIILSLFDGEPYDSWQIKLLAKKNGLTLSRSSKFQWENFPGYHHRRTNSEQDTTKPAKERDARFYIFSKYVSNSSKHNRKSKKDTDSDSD

Kd: 109 ± 10.8 µM
Structure (SMILES): C[S+](CC[C@H](N)C(=O)O)C[C@H]1O[C@@H](n2cnc3c(N)ncnc32)[C@H](O)[C@@H]1O (stereo partly shown) [SAM]
